According to ChEMBL document CHEMBL3217550, “Synthesis and synergistic antimycobacterial screening of chlorpromazine and its metabolites” (2014):
≈ marks a conversion by molar mass, not a printed value.

Key:
Format in all cases: functional
[1] = test system: Mycolicibacterium smegmatis; assay: Antimycobacterial against Mycobacterium smegmatis
[2] = test system: Mycolicibacterium smegmatis; assay: Antimycobacterial against Mycobacterium smegmatis in presence of spectinomycin
[3] = test system: Mycolicibacterium smegmatis; assay: Antimycobacterial against Mycobacterium smegmatis in presence of kanamycin
[4] = test system: Mycolicibacterium smegmatis; assay: Antimycobacterial against Mycobacterium smegmatis in presence of 25-desacetylrifampicin
[5] = test system: Mycolicibacterium smegmatis; assay: Antimycobacterial against Mycobacterium smegmatis in presence of streptomycin
[6] = test system: Mycolicibacterium smegmatis; assay: Antimycobacterial against Mycobacterium smegmatis in presence of rifampicin
[7] = test system: Mycolicibacterium smegmatis; assay: Antimycobacterial against Mycobacterium smegmatis in presence of chlorpromazine
[8] = test system: Mycolicibacterium smegmatis; assay: Antimycobacterial against Mycobacterium smegmatis in presence of ciprofloxacin
[9] = test system: Mycolicibacterium smegmatis; assay: Antimycobacterial against Mycobacterium smegmatis in presence of TMC207

CNCCCN1c2ccccc2[S+]([O-])c2ccc(Cl)cc21 (configuration not stated)
MIC99 [1]: > 2080 µM

C[N+](C)([O-])CCCN1c2ccccc2Sc2ccc(Cl)cc21
fractional inhibitory concentration index (FICI) [2]: 0.63 | fractional inhibitory concentration index (FICI) [3]: 1 | fractional inhibitory concentration index (FICI) [4]: 0.75 | fractional inhibitory concentration index (FICI) [5]: 0.74 | fractional inhibitory concentration index (FICI) [6]: 1 | MIC99 [1]: 995 µM (≈ 333 µg/mL)

C[N+](C)([O-])CCCN1c2ccccc2[S+]([O-])c2ccc(Cl)cc21 (configuration not stated)
MIC99 [1]: > 1900 µM

CN(C)CCCN1c2ccc(O)cc2Sc2ccc(Cl)cc21 [7-HYDROXYCHLORPROMAZINE]
fractional inhibitory concentration index (FICI) [2]: 0.19 | fractional inhibitory concentration index (FICI) [3]: 0.5 | fractional inhibitory concentration index (FICI) [7]: 0.75 | fractional inhibitory concentration index (FICI) [4]: 0.75 | fractional inhibitory concentration index (FICI) [5]: 0.79 | fractional inhibitory concentration index (FICI) [6]: 0.63 | MIC99 [1]: 62.2 µM (≈ 20.8 µg/mL)

COc1nc2ccc(Br)cc2cc1[C@@H](c1ccccc1)[C@@](O)(CCN(C)C)c1cccc2ccccc12 [BEDAQUILINE]
MIC99 [1]: 0.05 µM (≈ 0.0278 µg/mL)

CN(C)CCCN1c2ccccc2[S+]([O-])c2ccc(Cl)cc21 (configuration not stated) [CHLOROPROMAZINE SULFOXIDE]
MIC99 [1]: > 1990 µM

CN(C)CCCN1c2ccccc2Sc2ccc(Cl)cc21 [CHLORPROMAZINE]
fractional inhibitory concentration index (FICI) [2]: 0.31 | fractional inhibitory concentration index (FICI) [3]: 1 | fractional inhibitory concentration index (FICI) [4]: 0.5 | fractional inhibitory concentration index (FICI) [8]: 0.73 | fractional inhibitory concentration index (FICI) [5]: 0.79 | fractional inhibitory concentration index (FICI) [6]: 0.63 | fractional inhibitory concentration index (FICI) [9]: 0.7 | MIC99 [1]: 58.6 µM (≈ 18.7 µg/mL)

O=C(O)c1cn(C2CC2)c2cc(N3CCNCC3)c(F)cc2c1=O [CIPROFLOXACIN]
MIC99 [1]: 0.63 µM (≈ 0.209 µg/mL)

CO[C@H]1/C=C/O[C@@]2(C)Oc3c(C)c(O)c4c(O)c(c(/C=N/N5CCN(C)CC5)c(O)c4c3C2=O)NC(=O)/C(C)=C\C=C\[C@H](C)[C@H](O)[C@@H](C)[C@@H](O)[C@@H](C)[C@H](O)[C@@H]1C [DESACETYLRIFAMPIN]
fractional inhibitory concentration index (FICI) [6]: 0.5 | MIC99 [1]: 1.33 µM (≈ 1.04 µg/mL)

CC[C@@H](CO)NCCN[C@@H](CC)CO [ETHAMBUTOL]
MIC99 [1]: 0.76 µM (≈ 0.155 µg/mL)

NC[C@H]1O[C@H](O[C@H]2[C@H](O)[C@@H](O[C@H]3O[C@H](CO)[C@@H](O)[C@H](N)[C@H]3O)[C@H](N)C[C@@H]2N)[C@H](O)[C@@H](O)[C@@H]1O [KANAMYCIN]
MIC99 [1]: 1.76 µM (≈ 0.853 µg/mL)

C[C@H]1COc2c(N3CCN(C)CC3)c(F)cc3c(=O)c(C(=O)O)cn1c23 [LEVOFLOXACIN]
MIC99 [1]: 0.58 µM (≈ 0.21 µg/mL)

CCn1cc(C(=O)O)c(=O)c2ccc(C)nc21 [NALIDIXIC ACID]
MIC99 [1]: 1440 µM (≈ 333 µg/mL)

CNCCCN1c2ccccc2Sc2ccc(Cl)cc21 [NOR1-CHLORPROMAZINE]
fractional inhibitory concentration index (FICI) [2]: 0.31 | fractional inhibitory concentration index (FICI) [3]: 0.5 | fractional inhibitory concentration index (FICI) [7]: 0.75 | fractional inhibitory concentration index (FICI) [4]: 0.5 | fractional inhibitory concentration index (FICI) [5]: 0.49 | fractional inhibitory concentration index (FICI) [6]: 0.5 | MIC99 [1]: 63.3 µM (≈ 19.3 µg/mL)

CO[C@H]1/C=C/O[C@@]2(C)Oc3c(C)c(O)c4c(O)c(c(/C=N/N5CCN(C)CC5)c(O)c4c3C2=O)NC(=O)/C(C)=C\C=C\[C@H](C)[C@H](O)[C@@H](C)[C@@H](O)[C@@H](C)[C@H](OC(C)=O)[C@@H]1C [RIFAMPIN]
MIC99 [1]: 1.26 µM (≈ 1.04 µg/mL)

CN[C@@H]1[C@H](O)[C@H](NC)[C@H]2O[C@@]3(O)C(=O)C[C@@H](C)O[C@H]3O[C@@H]2[C@H]1O [SPECTINOMYCIN]
MIC99 [1]: 84.1 µM (≈ 28 µg/mL)

CN[C@@H]1[C@H](O[C@H]2[C@H](O[C@H]3[C@H](O)[C@@H](O)[C@H](N=C(N)N)[C@@H](O)[C@@H]3N=C(N)N)O[C@@H](C)[C@]2(O)C=O)O[C@@H](CO)[C@H](O)[C@H]1O [STREPTOMYCIN]
MIC99 [1]: 0.07 µM (≈ 0.0407 µg/mL)
